The target in one assay is VEGFR2 (Homo sapiens, UniProt P35968). Put plainly: VEGF stimulated Ca++ signal in vitro (FLIPR).
Another assay has as its target PDGFβ (Homo sapiens, UniProt P09619). Put plainly: PDGFβ enzyme assay. It counts as biochemical. To be noted: Table IV, amide or urea linker.
Assay [1] concerns the target T1, human VEGF receptor (VEGFR-2) (Homo sapiens, UniProt P35968).
T1 construct: The cytoplasmic domain of the human VEGF receptor (VEGFR-2) was expressed; His; made in house; host or cells: insect cells (baculovirus)
As to the kind of experiment: VEGFR2 kinase assay. In kind it is biochemical. To be noted: His-VEGFR-2 cytoplasmic domain, 3.6 μM ATP; Table IV, amide or urea linker; read-out: VEGFR2 Enzyme IC50. The method in brief:
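His-tagged VEGFR-2 cytoplasmic domain from baculovirus-infected insect cells phosphorylating plate-bound poly-Glu-Tyr (4:1). IC50 from blank-subtracted optical density versus compound concentration.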

A further assay has as its target VEGFR1 (Homo sapiens, UniProt P17948). As to the kind of experiment: VEGFR1 enzyme assay. It counts as biochemical. Particulars: Table IV, amide or urea linker.

Consider 19 compounds from US8906944B2, “Compounds as tyrosine kinase modulators” (Allergan, Inc., priority 2009, dated 2014).

SMILES strings stand for the structures.

Sequence of PDGFβ (P09619 33-1106): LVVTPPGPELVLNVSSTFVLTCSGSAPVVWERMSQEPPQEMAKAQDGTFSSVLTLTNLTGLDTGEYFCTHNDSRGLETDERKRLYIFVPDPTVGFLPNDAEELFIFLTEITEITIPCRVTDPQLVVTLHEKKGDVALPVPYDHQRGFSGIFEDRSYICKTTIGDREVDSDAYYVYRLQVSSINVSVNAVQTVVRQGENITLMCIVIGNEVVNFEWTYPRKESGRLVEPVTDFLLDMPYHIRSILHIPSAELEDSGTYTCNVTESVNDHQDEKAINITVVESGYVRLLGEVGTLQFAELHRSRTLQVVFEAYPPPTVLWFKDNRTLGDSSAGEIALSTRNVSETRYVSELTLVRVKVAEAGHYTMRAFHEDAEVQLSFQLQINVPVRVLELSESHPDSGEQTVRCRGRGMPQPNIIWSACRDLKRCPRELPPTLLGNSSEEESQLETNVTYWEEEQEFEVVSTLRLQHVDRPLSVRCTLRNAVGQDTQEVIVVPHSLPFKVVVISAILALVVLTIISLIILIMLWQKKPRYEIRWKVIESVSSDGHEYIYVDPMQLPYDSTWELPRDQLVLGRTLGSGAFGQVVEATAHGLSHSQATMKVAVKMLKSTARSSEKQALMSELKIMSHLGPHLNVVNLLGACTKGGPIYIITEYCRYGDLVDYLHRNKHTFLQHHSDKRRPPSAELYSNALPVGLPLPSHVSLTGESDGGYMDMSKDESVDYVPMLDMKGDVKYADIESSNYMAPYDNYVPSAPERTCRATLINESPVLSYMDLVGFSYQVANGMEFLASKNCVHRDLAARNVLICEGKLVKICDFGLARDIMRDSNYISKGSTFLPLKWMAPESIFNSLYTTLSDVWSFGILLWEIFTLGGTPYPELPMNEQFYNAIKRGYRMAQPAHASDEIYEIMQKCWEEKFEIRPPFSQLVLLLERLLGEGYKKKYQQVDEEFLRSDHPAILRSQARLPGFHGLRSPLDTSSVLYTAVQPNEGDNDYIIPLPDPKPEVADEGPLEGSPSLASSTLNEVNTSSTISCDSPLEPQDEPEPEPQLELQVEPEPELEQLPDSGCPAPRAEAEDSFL
Sequence of VEGFR2 (P35968 20-1356): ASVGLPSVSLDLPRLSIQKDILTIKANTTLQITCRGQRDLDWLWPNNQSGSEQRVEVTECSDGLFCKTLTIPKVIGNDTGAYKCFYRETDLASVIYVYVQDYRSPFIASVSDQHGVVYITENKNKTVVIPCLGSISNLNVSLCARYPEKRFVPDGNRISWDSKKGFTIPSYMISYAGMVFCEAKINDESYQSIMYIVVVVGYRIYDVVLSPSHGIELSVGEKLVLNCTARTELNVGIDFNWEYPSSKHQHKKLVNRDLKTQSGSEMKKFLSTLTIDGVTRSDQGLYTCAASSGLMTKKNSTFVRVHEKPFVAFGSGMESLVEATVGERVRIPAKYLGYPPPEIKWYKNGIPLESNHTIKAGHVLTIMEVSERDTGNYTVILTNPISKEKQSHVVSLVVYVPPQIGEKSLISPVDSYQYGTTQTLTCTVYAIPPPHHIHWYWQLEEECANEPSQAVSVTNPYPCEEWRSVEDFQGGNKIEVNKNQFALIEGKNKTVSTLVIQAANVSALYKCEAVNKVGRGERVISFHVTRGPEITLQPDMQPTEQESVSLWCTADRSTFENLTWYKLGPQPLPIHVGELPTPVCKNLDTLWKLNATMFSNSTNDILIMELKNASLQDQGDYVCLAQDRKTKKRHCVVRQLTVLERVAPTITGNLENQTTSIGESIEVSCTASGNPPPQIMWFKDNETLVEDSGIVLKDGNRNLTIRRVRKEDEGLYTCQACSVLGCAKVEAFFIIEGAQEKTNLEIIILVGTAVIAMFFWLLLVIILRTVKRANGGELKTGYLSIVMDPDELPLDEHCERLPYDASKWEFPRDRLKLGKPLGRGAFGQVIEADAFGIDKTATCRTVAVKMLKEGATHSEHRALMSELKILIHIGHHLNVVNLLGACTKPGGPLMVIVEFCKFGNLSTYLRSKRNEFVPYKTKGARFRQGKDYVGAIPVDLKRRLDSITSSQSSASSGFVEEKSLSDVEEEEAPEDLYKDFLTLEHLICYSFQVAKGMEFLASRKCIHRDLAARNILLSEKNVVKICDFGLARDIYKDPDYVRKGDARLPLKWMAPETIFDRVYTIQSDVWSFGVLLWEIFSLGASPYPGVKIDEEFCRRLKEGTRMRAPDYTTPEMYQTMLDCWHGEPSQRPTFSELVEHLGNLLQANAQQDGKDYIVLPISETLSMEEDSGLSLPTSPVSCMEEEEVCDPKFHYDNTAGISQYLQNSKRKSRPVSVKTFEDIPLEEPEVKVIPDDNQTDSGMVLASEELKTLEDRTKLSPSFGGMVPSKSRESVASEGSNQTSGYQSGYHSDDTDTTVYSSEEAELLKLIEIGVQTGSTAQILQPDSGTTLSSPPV
Sequence of VEGFR1 (P17948 27-1338, species assumed): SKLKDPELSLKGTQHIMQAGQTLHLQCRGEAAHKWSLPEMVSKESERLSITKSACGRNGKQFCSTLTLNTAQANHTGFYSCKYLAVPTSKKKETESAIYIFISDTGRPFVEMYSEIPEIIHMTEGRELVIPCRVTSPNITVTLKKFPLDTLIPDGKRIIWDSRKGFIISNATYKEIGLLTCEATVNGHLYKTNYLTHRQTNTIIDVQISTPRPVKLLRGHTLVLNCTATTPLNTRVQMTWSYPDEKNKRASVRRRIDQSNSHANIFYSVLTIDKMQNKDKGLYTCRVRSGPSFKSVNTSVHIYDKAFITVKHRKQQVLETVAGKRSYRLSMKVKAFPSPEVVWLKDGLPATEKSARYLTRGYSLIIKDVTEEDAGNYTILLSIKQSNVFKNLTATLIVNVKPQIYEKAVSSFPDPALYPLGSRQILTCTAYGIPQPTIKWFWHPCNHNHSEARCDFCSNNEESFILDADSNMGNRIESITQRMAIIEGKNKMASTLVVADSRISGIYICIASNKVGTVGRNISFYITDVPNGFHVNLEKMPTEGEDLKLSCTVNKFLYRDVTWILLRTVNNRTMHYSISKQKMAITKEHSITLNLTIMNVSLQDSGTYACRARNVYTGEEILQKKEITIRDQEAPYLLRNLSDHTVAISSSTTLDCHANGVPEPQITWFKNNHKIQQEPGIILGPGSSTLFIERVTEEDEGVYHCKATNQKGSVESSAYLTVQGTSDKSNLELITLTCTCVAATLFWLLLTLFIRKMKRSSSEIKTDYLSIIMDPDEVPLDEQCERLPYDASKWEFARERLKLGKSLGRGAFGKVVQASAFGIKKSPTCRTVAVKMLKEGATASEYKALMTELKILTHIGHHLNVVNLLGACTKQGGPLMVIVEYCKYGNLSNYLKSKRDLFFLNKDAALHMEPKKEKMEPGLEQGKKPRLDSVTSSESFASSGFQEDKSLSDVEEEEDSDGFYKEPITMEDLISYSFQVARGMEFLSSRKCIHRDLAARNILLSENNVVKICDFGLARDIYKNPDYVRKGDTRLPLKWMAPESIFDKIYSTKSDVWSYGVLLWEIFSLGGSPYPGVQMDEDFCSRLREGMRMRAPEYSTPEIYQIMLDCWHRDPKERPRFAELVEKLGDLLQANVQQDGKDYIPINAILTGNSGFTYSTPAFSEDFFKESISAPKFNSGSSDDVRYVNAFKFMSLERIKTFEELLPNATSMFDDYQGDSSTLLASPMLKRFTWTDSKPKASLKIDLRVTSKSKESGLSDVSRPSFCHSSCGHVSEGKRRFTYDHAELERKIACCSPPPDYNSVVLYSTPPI
T1 sequence (P35968 786-1356 limits assumed): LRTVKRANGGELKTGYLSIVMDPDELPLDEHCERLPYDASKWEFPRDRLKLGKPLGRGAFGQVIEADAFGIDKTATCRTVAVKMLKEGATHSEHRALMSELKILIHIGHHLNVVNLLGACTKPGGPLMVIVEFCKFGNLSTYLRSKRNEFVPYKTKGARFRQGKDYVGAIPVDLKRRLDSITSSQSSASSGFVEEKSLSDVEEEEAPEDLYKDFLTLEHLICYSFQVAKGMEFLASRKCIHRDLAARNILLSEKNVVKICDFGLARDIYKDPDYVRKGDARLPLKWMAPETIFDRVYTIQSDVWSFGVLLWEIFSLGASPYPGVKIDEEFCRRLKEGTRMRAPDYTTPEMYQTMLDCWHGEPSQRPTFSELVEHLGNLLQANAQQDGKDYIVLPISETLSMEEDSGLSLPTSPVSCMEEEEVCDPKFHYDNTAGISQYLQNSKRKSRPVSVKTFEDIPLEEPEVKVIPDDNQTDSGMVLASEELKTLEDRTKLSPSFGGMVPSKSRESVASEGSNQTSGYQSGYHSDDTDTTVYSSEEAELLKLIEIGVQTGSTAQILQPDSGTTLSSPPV

In the case of `CCOC(=O)CN1CCN(CCCNC(=O)c2c[nH]c(-c3cc(Oc4ccc(NC(=O)Nc5cc(C)ccc5F)cc4)ccn3)c2)CC1` [Example 158, ethyl [4-(3-{[(5-{4-[4-({[(2-fluoro-5-methylphenyl)amino]carbonyl}amino)phenoxy]pyridin-2-yl}-1H-pyrrol-3-yl)carbonyl]amino}propyl)piperazin-1-yl]acetate], the 50% inhibitory concentration (IC50) (in general, the concentration needed to halve the response being measured) against VEGFR2 is 11 nM; on PDGFβ it was 29 nM; in assay [1], 11 nM; on VEGFR1, 6 nM.

Turning to `Cc1ccc(F)c(NC(=O)Nc2ccc(Oc3ccnc(-c4cc(C(=O)NCCCN5CCOC(CO)C5)c[nH]4)c3)cc2)c1` (stereo not shown) [Example 159, 5-{4-[4-({[(2-fluoro-5-methylphenyl)amino]carbonyl}amino)phenoxy]pyridin-2-yl}-N-{3-[2-(hydroxymethyl)morpholin-4-yl]propyl}-1H-pyrrole-3-carboxamide], the IC50 at VEGFR2 turned out to be 26 nM; on PDGFβ, 33 nM; in assay [1] it was 11 nM; against VEGFR1, 9 nM.

As for `COC(=O)CCCOC(=O)c1c[nH]c(-c2cc(Oc3ccc(NC(=O)Nc4cc(C)ccc4F)cc3)ccn2)c1` [Example 165, 4-methoxy-4-oxobutyl 5-{4-[4-({[(2-fluoro-5-methylphenyl)amino]carbonyl}amino)phenoxy]pyridin-2-yl}-1H-pyrrole-3-carboxylate], the IC50 against VEGFR2 was determined as 12 nM; on PDGFβ, 35 nM; in assay [1] it was 10 nM; at VEGFR1, 17 nM.

As for `CCOC(=O)CCCCNC(=O)c1c[nH]c(-c2cc(Oc3ccc(NC(=O)Nc4cc(C)ccc4F)cc3)ccn2)c1` [Example 167, ethyl 5-{[(5-{4-[4-({[(2-fluoro-5-methylphenyl)amino]carbonyl}amino)phenoxy]pyridin-2-yl}-1H-pyrrol-3-yl)carbonyl]amino}pentanoate], the concentration for half-maximal inhibition (IC50) on VEGFR2 turned out to be 11 nM; on PDGFβ, 27 nM; in assay [1] it was 9 nM; against VEGFR1 it was 21 nM.

For `CCOC(=O)N1CCN(CCNC(=O)c2c[nH]c(-c3cc(Oc4ccc(NC(=O)Nc5cc(C)ccc5F)c(F)c4)ccn3)c2)CC1` [Example 168, ethyl 4-(2-{[(5-{4-[3-fluoro-4-({[(2-fluoro-5-methylphenyl)amino]carbonyl}amino)phenoxy]pyridin-2-yl}-1H-pyrrol-3-yl)carbonyl]amino}ethyl)piperazine-1-carboxylate], the concentration for half-maximal inhibition (IC50) came to 11 nM at VEGFR2, 12 nM against PDGFβ, 10 nM in assay [1] and 17 nM at VEGFR1.

As for `CCOC(=O)N1CCN(CCCNC(=O)c2c[nH]c(-c3cc(Oc4cc(C(=O)Nc5cc(C)ccc5F)ccc4F)ccn3)c2)CC1` [Example 171, ethyl 4-{3-[({5-[4-(2-fluoro-5-{[(2-fluoro-5-methylphenyl)amino]carbonyl}phenoxy)pyridin-2-yl]-1H-pyrrol-3-yl}carbonyl)amino]propyl}piperazine-1-carboxylate], the IC50 against VEGFR2 was determined as 21 nM; on PDGFβ, 33 nM; in assay [1], 23 nM; on VEGFR1, 91 nM.

For the compound `CCOC(=O)N1CCN(CCCNC(=O)c2c[nH]c(-c3cc(Oc4ccc(NC(=O)Nc5cc(C)ccc5F)c(F)c4)ccn3)c2)CC1` [Example 172, ethyl 4-(3-{[(5-{4-[3-fluoro-4-({[(2-fluoro-5-methylphenyl)amino]carbonyl}amino)phenoxy]pyridin-2-yl}-1H-pyrrol-3-yl)carbonyl]amino}propyl)piperazine-1-carboxylate], the 50% inhibitory concentration (IC50) came out at 13 nM against VEGFR2, 19 nM against PDGFβ, 10 nM in assay [1] and 11 nM against VEGFR1.

Take `COC(=O)CNC(=O)c1c[nH]c(-c2cc(Oc3ccc(NC(=O)Nc4cc(C)ccc4F)c(F)c3)ccn2)c1` [Example 211, methyl {[(5-{4-[3-fluoro-4-({[(2-fluoro-5-methylphenyl)amino]carbonyl}amino)phenoxy]pyridin-2-yl}-1H-pyrrol-3-yl)carbonyl]amino}acetate]: the 50% inhibitory concentration (IC50) on VEGFR2 was 3 nM; at PDGFβ, 12 nM; in assay [1] it was 9 nM; at VEGFR1, 8 nM.

With `Cc1ccc(F)c(NC(=O)Nc2ccc(Oc3ccnc(-c4cc(C(=O)NCCCNC(=O)OC(C)(C)C)c[nH]4)c3)cc2F)c1` [Example 212, tert-butyl (3-{[(5-{4-[3-fluoro-4-({[(2-fluoro-5-methylphenyl)amino]carbonyl}amino)phenoxy]pyridin-2-yl}-1H-pyrrol-3-yl)carbonyl]amino}propyl)carbamate], the half-maximal inhibitory concentration (IC50) was determined as 6 nM at VEGFR2, 45 nM on PDGFβ, 13 nM in assay [1] and 20 nM against VEGFR1.

Take `COC(=O)CN(CCCNC(=O)c1c[nH]c(-c2cc(Oc3ccc(NC(=O)Nc4cc(C)ccc4F)c(F)c3)ccn2)c1)CC(=O)OC` [Example 213, dimethyl 2,2′-[(3-{[(5-{4-[3-fluoro-4-({[(2-fluoro-5-methylphenyl)amino]carbonyl}amino)phenoxy]pyridin-2-yl}-1H-pyrrol-3-yl)carbonyl]amino}propyl)imino]diacetate]: the IC50 was 3 nM on VEGFR2, 38 nM against PDGFβ, 9 nM in assay [1] and 13 nM against VEGFR1.

Consider `COC(=O)CN(CCNC(=O)c1c[nH]c(-c2cc(Oc3ccc(NC(=O)Nc4cc(C)ccc4F)c(F)c3)ccn2)c1)CC(=O)OC` [Example 215, dimethyl 2,2′-[(2-{[(5-{4-[3-fluoro-4-({[(2-fluoro-5-methylphenyl)amino]carbonyl}amino)phenoxy]pyridin-2-yl}-1H-pyrrol-3-yl)carbonyl]amino}ethyl)imino]diacetate], for which the IC50 against VEGFR2 turned out to be 4 nM; on PDGFβ it was 34 nM; in assay [1], 5 nM; against VEGFR1 it was 13 nM.

For `CCOC(=O)CN1CCN(C(=O)c2c[nH]c(-c3cc(Oc4ccc(NC(=O)Nc5cc(C)ccc5F)c(F)c4)ccn3)c2)CC1` [Example 219, ethyl {4-[(5-{4-[3-fluoro-4-({[(2-fluoro-5-methylphenyl)amino]carbonyl}amino)phenoxy]pyridin-2-yl}-1H-pyrrol-3-yl)carbonyl]piperazin-1-yl}acetate], the IC50 against VEGFR2 worked out at 8 nM; on PDGFβ it was 29 nM; in assay [1] it was 9 nM; against VEGFR1, 8 nM.

Regarding `Cc1ccc(F)c(NC(=O)Nc2ccc(Oc3ccnc(-c4cc(C(=O)N5CCNCC5)c[nH]4)c3)cc2F)c1` [Example 221, 1-(2-fluoro-5-methylphenyl)-3-[2-fluoro-4-({2-[4-(piperazin-1-ylcarbonyl)-1H-pyrrol-2-yl]pyridin-4-yl}oxy)phenyl]urea], the IC50 at VEGFR2 came out at 15 nM; on PDGFβ it was 19 nM; in assay [1], 11 nM; on VEGFR1 it was 7 nM.

Regarding `Cc1ccc(F)c(NC(=O)Nc2ccc(Oc3ccnc(-c4cc(C(=O)OCCCN5CCOCC5)c[nH]4)c3)cc2F)c1` [Example 229, 3-morpholin-4-ylpropyl 5-{4-[3-fluoro-4-({[(2-fluoro-5-methylphenyl)amino]carbonyl}amino)phenoxy]pyridin-2-yl}-1H-pyrrole-3-carboxylate], the half-maximal inhibitory concentration (IC50) amounted to 13 nM against VEGFR2, 9 nM on PDGFβ, 11 nM in assay [1] and 11 nM against VEGFR1.

In the case of `COC(=O)CN(CCCNC(=O)c1c[nH]c(-c2cc(Oc3ccc(NC(=O)Nc4cc(C)ccc4F)cc3)ccn2)c1)CC(=O)OC` [Example 232, dimethyl 2,2′-[(3-{[(5-{4-[4-({[(2-fluoro-5-methylphenyl)amino]carbonyl}amino)phenoxy]pyridin-2-yl}-1H-pyrrol-3-yl)carbonyl]amino}propyl)imino]diacetate], the IC50 on VEGFR2 was 5 nM; at PDGFβ, 20 nM; in assay [1], 9 nM; on VEGFR1, 16 nM.

Consider `Cc1cccc(NC(=O)Nc2ccc(Oc3ccnc(-c4cc(C(=O)NCCCO)c[nH]4)c3)cc2)c1` [Example 237], for which the half-inhibitory concentration (IC50) at VEGFR2 came out at 3 nM; at PDGFβ it was 19 nM; in assay [1] it was 8 nM; against VEGFR1, 8 nM.

For `Cc1ccc(F)c(NC(=O)Nc2ccc(Oc3ccnc(-c4cc(C(=O)NN)c[nH]4)c3)cc2)c1` [Example 241, 1-(2-fluoro-5-methylphenyl)-3-[4-({2-[4-(hydrazinocarbonyl)-1H-pyrrol-2-yl]pyridin-4-yl}oxy)phenyl]urea], the IC50 against VEGFR2 stood at 4 nM; against PDGFβ, 27 nM; in assay [1], 10 nM; at VEGFR1 it was 19 nM.

As for `COC(=O)[C@@H]1CCCN1CCCNC(=O)c1c[nH]c(-c2cc(Oc3cc(C(=O)Nc4cc(C)ccc4F)ccc3F)ccn2)c1` [Example 243, methyl (2S)-1-{3-[({5-[4-(2-fluoro-5-{[(2-fluoro-5-methylphenyl)amino]carbonyl}phenoxy)pyridin-2-yl]-1H-pyrrol-3-yl}carbonyl)amino]propyl}pyrrolidine-2-carboxylate], the half-maximal inhibitory concentration (IC50) on VEGFR2 turned out to be 5 nM; against PDGFβ it was 80 nM; in assay [1], 16 nM; against VEGFR1, 39 nM.

For `COC(=O)CC[C@H](NC(=O)c1c[nH]c(-c2cc(Oc3ccc(NC(=O)Nc4cc(C)ccc4F)c(F)c3)ccn2)c1)C(=O)OC` [Example 270, dimethyl 2-{[(5-{4-[3-fluoro-4-({[(2-fluoro-5-methylphenyl)amino]carbonyl}amino)phenoxy]pyridin-2-yl}-1H-pyrrol-3-yl)carbonyl]amino}pentanedioate], the half-inhibitory concentration (IC50) at VEGFR2 was determined as 8 nM; on PDGFβ it was 18 nM; in assay [1], 7 nM; on VEGFR1, 8 nM.
